Test results taken from the supplement of paper PMC11451515.

Test system: SEM cells
Experiment: cell viability relative to DMSO control; higher = less cytotoxic
Conditions: 48 h
In short: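 Leukemia cells (NOMO1 or SEM, 500 cells/well; P12-Ichikawa, 1000 cells/well) were seeded in 5 μl in 1536-well plates after at least four passages of adaptation to each medium. They received library compounds in DMSO by pin dosing, 11 threefold points from 47 μM to 0.79 nM. Luminescence with CellTiter-Glo One was read after 48 h at 37°C. Viability is stated per plate relative to DMSO wells, with cell-free wells as background.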

[1] = HPLM + 10% dialyzed FBS, 0.000781 µM
[2] = HPLM + 10% dialyzed FBS, 0.00234 µM
[3] = HPLM + 10% dialyzed FBS, 0.00702 µM
[4] = HPLM + 10% dialyzed FBS, 0.0211 µM
[5] = HPLM + 10% dialyzed FBS, 0.0632 µM
[6] = HPLM + 10% dialyzed FBS, 0.19 µM
[7] = HPLM + 10% dialyzed FBS, 0.569 µM
[8] = HPLM + 10% dialyzed FBS, 1.71 µM
[9] = HPLM + 10% dialyzed FBS, 5.12 µM
[10] = HPLM + 10% dialyzed FBS, 15.4 µM
[11] = HPLM + 10% dialyzed FBS, 46.1 µM
[12] = RPMI 5 mM glucose + 10% FBS, 0.000781 µM
[13] = RPMI 5 mM glucose + 10% FBS, 0.00234 µM
[14] = RPMI 5 mM glucose + 10% FBS, 0.00702 µM
[15] = RPMI 5 mM glucose + 10% FBS, 0.0211 µM
[16] = RPMI 5 mM glucose + 10% FBS, 0.0632 µM
[17] = RPMI 5 mM glucose + 10% FBS, 0.19 µM
[18] = RPMI 5 mM glucose + 10% FBS, 0.569 µM
[19] = RPMI 5 mM glucose + 10% FBS, 1.71 µM
[20] = RPMI 5 mM glucose + 10% FBS, 5.12 µM
[21] = RPMI 5 mM glucose + 10% FBS, 15.4 µM
[22] = RPMI 5 mM glucose + 10% FBS, 46.1 µM
[23] = RPMI 5 mM glucose + 10% dialyzed FBS, 0.000781 µM
[24] = RPMI 5 mM glucose + 10% dialyzed FBS, 0.00234 µM
[25] = RPMI 5 mM glucose + 10% dialyzed FBS, 0.00702 µM
[26] = RPMI 5 mM glucose + 10% dialyzed FBS, 0.0211 µM
[27] = RPMI 5 mM glucose + 10% dialyzed FBS, 0.0632 µM
[28] = RPMI 5 mM glucose + 10% dialyzed FBS, 0.19 µM
[29] = RPMI 5 mM glucose + 10% dialyzed FBS, 0.569 µM
[30] = RPMI 5 mM glucose + 10% dialyzed FBS, 1.71 µM
[31] = RPMI 5 mM glucose + 10% dialyzed FBS, 5.12 µM
[32] = RPMI 5 mM glucose + 10% dialyzed FBS, 15.4 µM
[33] = RPMI 5 mM glucose + 10% dialyzed FBS, 46.1 µM

Row | SMILES | cell viability [1] [%] | cell viability [2] [%] | cell viability [3] [%] | cell viability [4] [%] | cell viability [5] [%] | cell viability [6] [%] | cell viability [7] [%] | cell viability [8] [%] | cell viability [9] [%] | cell viability [10] [%] | cell viability [11] [%] | cell viability [12] [%] | cell viability [13] [%] | cell viability [14] [%] | cell viability [15] [%] | cell viability [16] [%] | cell viability [17] [%] | cell viability [18] [%] | cell viability [19] [%] | cell viability [20] [%] | cell viability [21] [%] | cell viability [22] [%] | cell viability [23] [%] | cell viability [24] [%] | cell viability [25] [%] | cell viability [26] [%] | cell viability [27] [%] | cell viability [28] [%] | cell viability [29] [%] | cell viability [30] [%] | cell viability [31] [%] | cell viability [32] [%] | cell viability [33] [%]
1 | CCC1=C2CN3C(=O)\C4=C(/C=C3/C2=NC5=CC=C(O)C=C15)[C@@](O)(CC)C(=O)OC4 | 96.7 | 95.6 | 91.4 | 28.1 | 19.3 | 17 | 11.6 | 6.74 | 6.74 | 6.36 | 4.6 | 108 | 102 | 67.7 | 25.6 | 15.6 | 16.1 | 12.9 | 6.76 | 7.58 | 5.69 | 5.1 | 94.5 | 89.1 | 65 | 28 | 16.6 | 15.2 | 12.8 | 6.01 | 7.69 | 5.69 | 4.62
2 | COCCNCCCn1c(C(=O)CF)c(-c2ccc(C)cc2)c2c(N)ncnc21 | 109 | 113 | 105 | 101 | 101 | 105 | 107 | 99.7 | 87 | 71.7 | 56.4 | – | – | – | – | – | – | – | – | – | – | – | 106 | 102 | 111 | 104 | 114 | 103 | 96.7 | 68.2 | 72.5 | 71.9 | 54.5
3 | NC(=O)c1ncn([C@@H]2O[C@H](CO)[C@@H](O)[C@H]2O)c1N | – | – | – | – | – | – | – | – | – | – | – | 81.8 | 95.1 | 89.9 | 72.7 | 95 | 83.1 | 91.7 | 68 | 66.6 | 69.7 | 18.9 | 120 | 113 | 116 | 120 | 136 | 109 | 121 | 115 | 122 | 114 | 31.5
4 | CC(=O)O[C@@]12CO[C@@H]1C[C@H](O)[C@]3(C)[C@@H]2[C@H](OC(=O)C4=CC=CC=C4)[C@]5(O)C[C@H](O)/C(=C(/[C@@H](O)C3=O)C5(C)C)C | 84.3 | 108 | 43.5 | 110 | 106 | 111 | 116 | 107 | 90.2 | 35.8 | 16.3 | 70.4 | 71.5 | 19.1 | 71 | 64.7 | 72.3 | 70.1 | 65.2 | 54.2 | 18.1 | 8.94 | 90.8 | 99.6 | 43.2 | 116 | 105 | 110 | 121 | 112 | 75.1 | 29.9 | 13
5 | Cc1ccc(Nc2nccc(N(C)c3ccc4c(C)n(C)nc4c3)n2)cc1[S+](N)(=O)[O-] | 83.9 | 89 | 88 | 105 | 98.2 | 91.7 | 91.3 | 91 | 75.3 | 61.3 | 18.1 | 87.2 | 92.9 | 95.7 | 109 | 86.3 | 91.6 | 77.5 | 79.6 | 63 | 38.9 | 7.79 | 95.9 | 83 | 99.7 | 105 | 92.3 | 101 | 90.2 | 81.8 | 57.5 | 49.2 | 14.8
6 | COC1=CC(=C2C(=O)N(COC/3=C/C(=O)N4\C=C/C=C(OCCN5CCCCC5)\C4=N3)[S+]([O-])(=O)C2=C1)C(C)C | 116 | 119 | 128 | 131 | 103 | 135 | 108 | 83.4 | 148 | 128 | 114 | 119 | 132 | 125 | 129 | 134 | 134 | 106 | 71 | 137 | 143 | 102 | 105 | 113 | 120 | 123 | 114 | 125 | 82.9 | 63.5 | 113 | 114 | 97.5
7 | CNCCN(C)Cc1c[nH]nc1-c1ccc(O[C@H]2C[C@H](OCCC3CCOCC3)C2)cc1 | 98.5 | 96.9 | 116 | 110 | 112 | 122 | 116 | 112 | 103 | 60.6 | 35.9 | 101 | 103 | 147 | 117 | 115 | 120 | 107 | 130 | 45.2 | 45.1 | 24.7 | 130 | 111 | 125 | 135 | 156 | 118 | 145 | 156 | 112 | 73.1 | 29.4
8 | CC(=O)[C@H]1CC[C@H]2[C@@H]3C/C=C4/C[C@@H](O)CC[C@]4(C)[C@H]3CC[C@]12C | 100 | 91.7 | 96.8 | 103 | 113 | 115 | 114 | 106 | 113 | 114 | 115 | 113 | 116 | 126 | 117 | 124 | 116 | 126 | 121 | 123 | 118 | 119 | – | – | – | – | – | – | – | – | – | – | –
9 | CN1\C(=C(O)/C2=C(C=C(Cl)S2)[S+]1([O-])=O)C(=O)NC3=NC=CC=C3 | 124 | 130 | 119 | 24.6 | 127 | 114 | 114 | 114 | 112 | 101 | 106 | 91.4 | 88 | 82.7 | 14.3 | 88.3 | 88.1 | 68.8 | 85.4 | 99.6 | 87.5 | 74.8 | 125 | 123 | 118 | 25.3 | 123 | 134 | 104 | 102 | 103 | 111 | 87.7
10 | Cc1ccnc(N[S+](=O)([O-])c2ccc(NC(=O)Nc3ccc([S+](=O)([O-])Nc4nccc(C)n4)cc3)cc2)n1 | 77.9 | 90.3 | 89.8 | 90.1 | 86.8 | 38.8 | 35.6 | 10.6 | 8.5 | 7.84 | 6.37 | 86.6 | 73.1 | 79.4 | 75.2 | 64.8 | 9.99 | 8.62 | 6.14 | 6.29 | 5.29 | 3.81 | 77.8 | 86.7 | 87.7 | 85.8 | 77.5 | 21.9 | 19.7 | 8.34 | 8.01 | 7.59 | 5.43
11 | Cc1ccc([S+](=O)([O-])NC(=O)NN2CC3CCCC3C2)cc1 (centres undefined) | 57.6 | 102 | 89.1 | 106 | 101 | 100 | 96.9 | 86.1 | 58.7 | 18.7 | 9.78 | 55.2 | 93.6 | 77.9 | 94.5 | 106 | 94.4 | 80.8 | 76.6 | 43.7 | 14.9 | 9.35 | 50.2 | 98.7 | 84.5 | 96.6 | 109 | 87.8 | 84.7 | 67.7 | 39.3 | 26.8 | 13.1
12 | OC[C@H]1O[C@H](C[C@@H]1O)N2\C=C(\I)C(=O)NC2=O | 86.1 | 99.2 | 97.3 | 93 | 99 | 113 | 117 | 88.2 | 95.3 | 74.7 | 69.6 | 97.1 | 110 | 104 | 107 | 102 | 113 | 101 | 110 | 101 | 77.8 | 66.5 | 90.9 | 92.5 | 92 | 99.9 | 98.4 | 109 | 84.3 | 64.3 | 60 | 49.2 | 39.4
13 | CCN(CC)CCNC(=O)c1ccc2nc(-c3ccccc3)c(-c3ccc(CN4CCC(n5c(=O)[nH]c6ccccc65)CC4)cc3)nc2c1 | 108 | 116 | 120 | 103 | 83.8 | 54 | 36.8 | 26.7 | 4.83 | 4.21 | 3.45 | 108 | 106 | 124 | 83.8 | 56.4 | 34.4 | 32.9 | 28.9 | 11 | 7.63 | 3.28 | 117 | 112 | 127 | 92.2 | 75.7 | 56.5 | 45.8 | 32.6 | 13.6 | 5.86 | 3.2
14 | N[C@@H](Cc1ccc(N(CCCl)CCCl)cc1)C(=O)O | 118 | 124 | 125 | 128 | 126 | 116 | 119 | 103 | 48.6 | 18.3 | 11.8 | – | – | – | – | – | – | – | – | – | – | – | 114 | 115 | 120 | 126 | 134 | 123 | 107 | 90.7 | 34.4 | 13.7 | 5.98
15 | O=P1(NCCCl)OCCCN1CCCl (centres undefined) | 88.9 | 85.6 | 92.8 | 101 | 76.1 | 81.2 | 78 | 84.7 | 81.3 | 63 | 12.5 | 92.6 | 99.5 | 101 | 103 | 96.8 | 94.4 | 97.1 | 94.2 | 105 | 57.3 | 7.96 | 87.6 | 86 | 94.8 | 81.9 | 65.5 | 69.1 | 60.6 | 69.5 | 66.4 | 45 | 10.8
16 | CCCCCCCN(CC)CCCC(O)c1ccc(NS(C)(=O)=O)cc1.CCCCCCCN(CC)CCCC(O)c1ccc(NS(C)(=O)=O)cc1.O=C(O)/C=C/C(=O)O (centres undefined) | 88.9 | 93.2 | 95.1 | 104 | 74.8 | 109 | 96.7 | 108 | 97.7 | 114 | 15 | 83.9 | 102 | 93.3 | 90.7 | 56.4 | 95.4 | 88.9 | 122 | 96.5 | 94 | 10.3 | 87.4 | 99.9 | 105 | 103 | 74.6 | 90.6 | 112 | 114 | 94.2 | 91.9 | 11.6
